# According to the supplement of paper PMC10307832:
# Tests used:
# Test in all cases: relative viability (nuclei count vs DMSO), 5 days (fraction); higher = more cells survive
# Bortezomib + Tozasertib = compound: CC(C)C[C@H](NC(=O)[C@H](Cc1ccccc1)NC(=O)c1cnccn1)B(O)O [Bortezomib] + Cc1cc(Nc2cc(N3CCN(C)CC3)nc(Sc3ccc(NC(=O)C4CC4)cc3)n2)n[nH]1 [Tozasertib] (partner 0.1 µM)
# Summary of the method: (§1)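 Lung cancer cell lines, seeded in 1536-well plates, were treated the following day by pin tool with a single drug or with five library-drug doses (not always all listed) in √10 steps on top of a fixed anchor-drug dose. Cells were fixed and nuclei stained in one step after 5 days, and nuclei were counted. Relative viability is the nuclei count for treated wells divided by that for vehicle wells, reported as medians of duplicate plates.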
# [1] = compound: CC1=CC(=NN1)NC2=CC(=NC(=N2)/C=C/C3=CC=CC=C3)N4CCN(CC4)C + CC1(C)CCC(c2ccc(Cl)cc2)=C(CN2CCN(c3ccc(C(=O)NS(=O)(=O)c4ccc(N[C@H](CCN5CCOCC5)CSc5ccccc5)c(S(=O)(=O)C(F)(F)F)c4)cc3)CC2)C1 [Navitoclax] (partner 0.5 µM)
# Summary of the method: as §1
# Obatoclax + Palbociclib = compound: COC1=CC(c2cc3ccccc3[nH]2)=N/C1=C\c1[nH]c(C)cc1C [Obatoclax] + CC(=O)c1c(C)c2cnc(Nc3ccc(N4CCNCC4)cn3)nc2n(C2CCCC2)c1=O [Palbociclib] (partner 0.5 µM)
# Summary of the method: as §1
Cell Line,relative viability (Bortezomib + Tozasertib; first compound 0.0002 µM),relative viability (Bortezomib + Tozasertib; first compound 0.000632 µM),relative viability (Bortezomib + Tozasertib; first compound 0.002 µM),relative viability (Bortezomib + Tozasertib; first compound 0.006325 µM),relative viability (Bortezomib + Tozasertib; first compound 0.02 µM),relative viability ([1]; first compound 0.08 µM),relative viability ([1]; first compound 0.253 µM),relative viability ([1]; first compound 0.8 µM),relative viability ([1]; first compound 2.53 µM),relative viability ([1]; first compound 8 µM),relative viability (Obatoclax + Palbociclib; first compound 0.01 µM),relative viability (Obatoclax + Palbociclib; first compound 0.03162 µM),relative viability (Obatoclax + Palbociclib; first compound 0.1 µM),relative viability (Obatoclax + Palbociclib; first compound 0.3162 µM),relative viability (Obatoclax + Palbociclib; first compound 1 µM)
PC-3 [JPC-3],0.827,0.898,0.442,0.169,0.125,0.769,0.81,0.762,0.62,0.389,0.497,0.515,0.503,0.406,0.33
HCC-44,0.887,–,0.305,0.161,0.221,0.967,1.01,0.965,0.912,0.436,0.922,0.916,0.967,0.993,0.94
NCI-H2405,0.715,0.804,0.629,0.23,0.153,0.884,0.688,1.13,0.511,0.0864,0.578,0.545,–,0.541,0.434
LXF-289,0.166,0.183,0.157,0.0616,0.046,0.924,0.966,0.922,0.772,0.325,0.588,0.609,0.588,0.629,0.613
LOU-NH91,0.643,0.7,0.32,0.224,0.166,0.706,0.729,0.697,0.387,0.201,0.497,0.523,0.429,0.422,0.464
A549,–,–,–,–,–,1.1,1.19,0.985,0.0304,0.0283,–,–,–,–,–
H3255,0.783,0.589,0.564,0.184,0.243,0.518,0.61,0.517,0.43,0.0832,0.308,0.299,0.278,0.327,0.324
NCI-H1395,0.793,0.692,0.576,0.288,0.274,1.32,1.27,1.59,0.676,0.308,0.554,0.602,0.597,0.6,0.439
LC-2-ad,0.447,0.477,0.328,0.217,0.199,0.432,0.332,0.224,0.0861,0.0584,0.428,0.46,0.489,0.464,0.438
NCI-H838,0.251,0.298,0.327,0.109,0.123,1.22,1.22,0.866,0.305,0.134,0.223,0.219,0.19,0.195,0.146
Calu-6,–,–,–,–,–,0.765,0.623,0.523,0.0678,0.0602,–,–,–,–,–
SW 900,0.522,0.544,0.184,0.103,0.14,–,–,–,–,–,0.619,0.543,0.605,0.475,0.363
LCLC-97TM1,0.289,0.204,0.25,0.131,0.14,0.492,0.781,0.294,0.201,0.106,0.193,0.223,0.204,0.199,0.25
HCC-15,0.372,0.45,0.405,0.0716,0.0808,0.67,0.731,0.612,0.409,0.118,0.672,0.728,0.695,0.752,0.609
CAL-12T,0.322,0.285,0.358,0.193,0.106,0.918,1.31,1.16,0.424,0.151,0.445,0.495,0.426,0.176,0.0895
NCI-H727,0.688,0.775,0.606,0.394,0.162,0.423,0.483,0.378,0.286,0.0872,0.608,0.618,0.779,0.62,0.646
ABC-1,0.162,0.213,0.181,0.16,0.226,–,–,–,–,–,0.838,0.717,0.595,0.609,0.454
NCI-H2023,0.305,0.356,0.428,0.329,0.0545,0.952,1.09,0.874,0.387,0.069,0.414,0.361,0.358,0.213,0.218
NCI-H358,0.101,0.114,0.103,0.0691,0.0756,–,–,–,–,–,0.13,0.127,0.142,0.114,0.117
SW 1573,0.168,0.172,0.165,0.0802,0.0573,0.98,1.06,0.772,0.227,0.0461,0.379,0.35,0.298,0.118,0.133
NCI-H1993,0.595,0.635,0.576,0.454,0.448,0.94,–,0.78,0.576,0.489,0.703,0.611,0.692,0.693,0.686
NCI-H661,0.367,0.355,0.341,0.287,0.201,–,–,–,–,–,0.393,0.397,0.465,0.413,0.34
UMC-11,0.19,0.208,0.197,0.229,0.204,0.317,0.312,0.177,0.116,0.0909,0.373,0.346,0.33,0.322,0.373
NCI-H520,0.482,0.401,0.262,0.24,0.232,0.985,1.12,0.889,0.198,0.127,0.287,0.23,0.331,0.187,0.151
ChaGo-K-1,0.233,0.207,0.248,0.165,0.155,0.893,1.12,1.24,0.298,0.272,0.912,0.925,0.91,0.903,0.99

Cell Line,relative viability (Bortezomib + Tozasertib; first compound 0.0002 µM),relative viability (Bortezomib + Tozasertib; first compound 0.000632 µM),relative viability (Bortezomib + Tozasertib; first compound 0.002 µM),relative viability (Bortezomib + Tozasertib; first compound 0.006325 µM),relative viability (Bortezomib + Tozasertib; first compound 0.02 µM),relative viability ([1]; first compound 0.08 µM),relative viability ([1]; first compound 0.253 µM),relative viability ([1]; first compound 0.8 µM),relative viability ([1]; first compound 2.53 µM),relative viability ([1]; first compound 8 µM),relative viability (Obatoclax + Palbociclib; first compound 0.01 µM),relative viability (Obatoclax + Palbociclib; first compound 0.03162 µM),relative viability (Obatoclax + Palbociclib; first compound 0.1 µM),relative viability (Obatoclax + Palbociclib; first compound 0.3162 µM),relative viability (Obatoclax + Palbociclib; first compound 1 µM)
NCI-H2085,0.873,0.872,0.697,0.302,0.281,1.24,1.19,0.994,0.489,0.315,0.472,0.45,0.462,0.482,0.423
NCI-H1651,0.694,0.72,0.619,0.099,0.101,0.974,1.11,0.837,0.424,0.129,0.522,0.501,0.524,0.553,0.554
RERF-LC-KJ,0.523,0.436,0.559,0.208,0.189,1.05,1.01,0.764,0.361,0.189,0.909,1.06,1.09,0.957,0.892
NCI-H1755,0.571,0.612,0.566,0.193,0.157,0.984,0.98,0.974,0.504,0.155,0.427,0.447,0.458,0.497,0.426
NCI-H2170,0.658,0.718,0.783,0.178,0.145,0.588,0.574,0.619,0.248,0.159,0.372,0.4,0.393,0.368,0.43
NCI-H2126,0.815,0.921,0.763,0.488,0.214,0.839,0.871,0.806,0.772,0.478,0.34,0.34,0.376,0.356,0.337
EPLC-272H,0.297,0.258,0.221,0.1,0.101,1.07,1.32,0.987,0.598,0.339,0.323,0.313,0.477,0.266,0.282
NCI-H1975,0.676,0.831,0.099,0.0653,0.088,0.977,1.12,1.08,0.616,0.134,0.557,0.55,0.285,0.542,0.177
NCI-H3122,0.388,0.43,0.266,0.153,0.088,1,0.996,0.991,0.918,0.896,0.185,0.185,0.277,0.224,0.179
COR-L 105,0.357,0.345,0.216,0.254,0.19,0.739,0.976,0.727,0.4,0.206,0.408,0.441,0.375,0.361,0.341
BEN,0.496,0.554,0.449,0.511,0.362,0.0566,0.0746,0.188,0.0803,0.0617,0.467,0.477,0.429,0.462,0.44
NCI-H1915,0.428,0.448,0.416,0.0502,0.0519,0.762,0.8,0.779,0.539,0.213,0.527,0.557,0.521,0.486,0.522
NCI-H1703,–,–,–,–,–,0.929,0.965,0.283,0.134,0.108,–,–,–,–,–
NCI-H1650,0.426,0.57,0.19,0.139,0.153,1.28,1.43,0.902,0.358,0.107,0.344,0.407,0.316,0.24,0.145
NCI-H2009,0.725,0.807,0.704,0.229,0.0821,1.19,1.09,1.13,1.12,0.212,0.215,0.224,0.194,0.188,0.123
NCI-H522,0.475,0.529,0.419,0.344,0.337,–,–,–,–,–,1.05,1.04,1.03,1.02,0.892
LCLC-103H,–,0.485,0.251,0.147,0.128,–,–,–,–,–,0.432,0.356,0.472,0.517,0.446
NCI-H1623,0.425,0.52,0.46,0.316,0.199,–,–,–,–,–,–,–,–,–,–
NCI-H1792,–,–,–,–,–,0.558,0.599,0.611,0.437,0.102,0.626,0.609,–,0.625,0.705
NCI-H2342,0.765,0.471,0.511,0.409,0.313,–,–,–,–,–,0.506,0.524,0.582,0.501,0.487
IA-LM,–,–,–,–,–,0.733,0.76,1.12,0.669,0.148,–,–,–,–,–
EBC-1,–,–,–,–,–,0.387,0.396,0.285,0.154,0.147,–,–,–,–,–
NCI-H1648,0.439,0.396,0.262,0.453,0.257,–,–,–,–,–,0.303,0.258,0.28,0.275,0.246
NCI-H1299,–,–,–,–,–,1.04,1.13,1.03,0.863,0.243,–,–,–,–,–
NCI-H596,0.82,0.949,0.753,0.188,0.155,0.91,1.04,0.705,0.489,0.27,–,–,–,–,–
